Reference: patent US7279179B2, “Liposome-entrapped topoisomerase inhibitors” (ALZA Corporation, priority 1988, dated 2007)

Columns and labels:
[1] = tested on: HT-29 subcutaneous xenograft tumor; type: in vivo
[2] = Plasma pharmacokinetics of liposome-entrapped and free topotecan in rats; type: in vivo; settings: for Vol. Dist. / elimination rate constant: i.v.; for AUC / Cmax / clearance / half-life: rat, plasma, iv; for half-life: read-out: T ½ (converted)
Procedure: FIGS. 4A–4B show the plasma concentration of topotecan as a function of time after administration to rats. […] FIG. 4B compares the two forms of the drug at a dosage of 5 mg/kg.

[3] = Plasma pharmacokinetics of liposome-entrapped and free CKD-602 in rats; settings: 1 mg/kg
[4] = tested on: HT-29 colon cancer xenograft; assay: HT-29 xenograft efficacy of liposome-entrapped CKD-602 (Example 5); type: in vivo, mice
in vivo = settings: rat
[5] = 25 mg/kg i.v. days 9, 16, 23, groups of 12 mice
[6] = 20 mg/kg i.v. days 11, 18, 25, animals/group

With CC[C@@]1(O)C(=O)OCc2c1cc1n(c2=O)Cc2cc3c(CN(C)C)c(O)ccc3nc2-1 [free topotecan, 9-dimethyl-aminomethyl-10-hydroxycamptothecin] the tumor growth rate ([1]; 25 mg/kg) was 14.1 mm^3 per day, the “% T/C Day 29” value ([1]; 25 mg/kg i.v. days 9, 16, 23) was 82.8% and the “% T/C Day 33” value ([1]; 25 mg/kg i.v. days 9, 16, 23) was 79.0%. The “% T/C Day 36” value ([1]; 25 mg/kg i.v. days 9, 16, 23) was 85.9%, the “Complete Remission (number of animals)” value [1, 5] was 0 and the “Non-Responsive (number of animals)” value [1, 5] was 11. For the same compound, the “Partial Remission (number of animals)” value [1, 5] was 1, the “Vol. Dist.” value ([2]; Dosage = 2 mg/kg) was 173 mL and the elimination rate constant ([2]; Dosage = 2 mg/kg) was 3.45 h⁻¹. For the same compound, the “Vol. Dist.” value ([2]; Dosage = 5 mg/kg) was 278 mL, the elimination rate constant ([2]; Dosage = 5 mg/kg) was 2.33 h⁻¹ and the AUC ([2]; Dosage = 2 mg/kg) was 570 ng·h/mL. For the same compound, the Cmax ([2]; Dosage = 2 mg/kg) was 2890 ng/mL, the clearance ([2]; Dosage = 2 mg/kg) was 14.8 mL/min and the half-life ([2]; Dosage = 2 mg/kg) was 12 min. It also gave an AUC ([2]; Dosage = 5 mg/kg) of 1570 ng·h/mL, a Cmax ([2]; Dosage = 5 mg/kg) of 8230 ng/mL and a clearance ([2]; Dosage = 5 mg/kg) of 13.7 mL/min. The half-life ([2]; Dosage = 5 mg/kg) was 18 min.
With CC[C@@]1(O)C(=O)OCc2c1cc1n(c2=O)Cc2c-1nc1ccccc1c2CCNC(C)C [free CKD602] the AUC [3] was 0.37 µg/mL/h, the calculated half-life [3] was 12 min and the tumor growth rate ([4]; 20 mg/kg) was 15.21 mm^3 per day. The “% T/C Day 29” value ([4]; 20 mg/kg i.v. days 11, 18, 25) was 129.1%, the “% T/C Day 33” value ([4]; 20 mg/kg i.v. days 11, 18, 25) was 120.1% and the “% T/C Day 36” value ([4]; 20 mg/kg i.v. days 11, 18, 25) was 99.9%. For the same compound, the “Complete Remission” value [4, 6] was 0/6, the Non-Responsive [4, 6] was 6/6 and the “Partial Remission” value [4, 6] was 0/6.
CC[C@@]1(O)C(=O)OCc2c1cc1n(c2=O)Cc2c-1nc1cc3c(cc1c2CN1CCN(C)CC1)OCCO3 [free MPE-camptothecin, 7-(4-methyl-piperazino-methylene)-10,11-ethylenedioxy-20(S)-camptothecin] gave a half-life (in vivo) of about 50 min.
